According to US10919935B2, “Antimicrobial peptide derived from myxinidin peptide and uses thereof” (INDUSTRY-ACADEMIC COOPERATION FOUNDATION, CHOSUN UNIVERSITY, priority 2015, dated 2021):
Residues, ends and D or L forms follow the SMILES beside them.

Legend:
S. typhimurium 8009 = assay: MIC at salt concentration (Example 3); type: cell-based, Salmonella typhimurium
Experimental: (§1) To compare the antimicrobial activity of the peptide produced by the method of Example 1, the inventors of the present invention measured the minimum growth inhibitory concentration (MIC), which is minimum concentration of the peptide showing no dissociation of bacterial cells, at salt concentration.
(§2) Specifically, the bacterial strain described in the above Table 2 was cultured in each medium to a mid-log phase. Then, after dilution to bacterial cell concentration of 2×10^5 cells/100 μl, the cells were inoculated to a microtiter plate (NUNC, USA). Thereafter, myxinidin 1, myxinidin 2, or myxinidin 3 peptides which have been synthesized in Example 1 above was diluted, 1/2 times for each, with BSA+150 mM sodium chloride (NaCl) solution, physiological saline (PBS) solution, or 10 mM sodium phosphate (SP) solution in a 96-well plate. After adding the cells to a plate, the cells were cultured for 12 hours at 37° C. By using a microtiter plate reader (Merck Elisa reader, Germany), the absorbance was measured at a wavelength of 600 nm to determine the MIC value of each bacterial strain. As a control group, myxinidin as a mother peptide was subjected to the same processes as above and the MIC value of each bacterial strain was obtained.

S. typhimurium 8013 = assay: MIC at salt concentration (Example 3); type: cell-based, Salmonella typhimurium
Experimental: as §1, §2

S. typhimurium = assay: MIC at salt concentration (Example 3); type: cell-based, Salmonella typhimurium
Experimental: as §1, §2

S. aureus 3114 = assay: MIC at salt concentration (Example 3); type: cell-based, Staphylococcus aureus
Experimental: as §1, §2

S. aureus 3709 = assay: MIC at salt concentration (Example 3); type: cell-based, Staphylococcus aureus
Experimental: as §1, §2

S. aureus [1] = assay: MIC at salt concentration (Example 3); type: cell-based, Staphylococcus aureus
Experimental: as §1, §2

L. monocytogenes [2] = assay: MIC at salt concentration (Example 3); type: cell-based, Listeria monocytogenes
Experimental: as §1, §2

P. aeruginosa 3592 = assay: MIC at salt concentration (Example 3); type: cell-based, Pseudomonas aeruginosa
Experimental: as §1, §2

P. aeruginosa 5018 = assay: MIC at salt concentration (Example 3); type: cell-based, Pseudomonas aeruginosa
Experimental: as §1, §2

P. aeruginosa [3] = assay: MIC at salt concentration (Example 3); type: cell-based, Pseudomonas aeruginosa
Experimental: as §1, §2

P. aeruginosa [4] = assay: Anti-biofilm activity (crystal violet); type: cell-based, Pseudomonas aeruginosa
Experimental: (§3) To compare the antimicrobial activity of the peptide produced by the method of Example 1, the inventors of the present invention measured the biofilm inhibitory concentration value of the peptide showing no dissociation of bacterial cells.
(§4) Specifically, the Gram-negative bacteria and Gram-positive bacteria among the bacterial strains described in the above Table 2 were cultured in each medium to a mid-log phase. Then, after dilution to bacterial cell concentration of 5×10^5 cells/100 μl, the cells were inoculated to a microtiter plate (NUNC, USA). Thereafter, myxinidin 1, myxinidin 2, or myxinidin 3 peptides which have been synthesized in Example 1 above was diluted, 1/10 times for each, with physiological saline (PBS) solution in a 96-well plate. After adding the cells to a plate, the cells were cultured for 12 hours at 37° C. After removing the supernatant, the cells were fixed with 100% methanol and reacted for 2 hours with Crystal violet staining solution followed by rinsing for 3 times. Then, after dissolving in 95% ethanol, the absorbance was measured at a wavelength of 595 nm by using a microtiter plate reader (Merck Elisa reader, Germany) to determine the biofilm inhibitory concentration value of each bacterial strain. As a control group, myxinidin as a mother peptide was subjected to the same processes as above and the biofilm inhibitory concentration value of each bacterial strain was obtained.

S. aureus [5] = assay: Anti-biofilm activity (crystal violet); type: cell-based, Staphylococcus aureus
Experimental: as §3, §4

L. monocytogenes [6] = assay: Anti-biofilm activity (crystal violet); type: cell-based, Listeria monocytogenes
Experimental: as §3, §4

in vitro = type: cell-based; conditions: human, NHK cells (normal human keratinocytes)
Experimental: To determine the cytotoxicity of the peptide produced by the method of Example 1 in normal cell line, toxicity was measured by using NHK cells (Normal Human Keratinocyte cells).
Specifically, NHK cells which have been cultured in Epilife medium with 60 μM calcium (Gibco, USA) containing 10% HKGS (Human Keratinocyte Growth Supplement) (Gibco, USA) were aliquoted in a 96-well plate to have 1×10^4 cells per well. After culturing them for 24 hours, the cells were subjected to a treatment with myxinidin, myxinidin 1, myxinidin 2, or myxinidin 3 peptide, each at concentration of 3.125, 6.25, 12.5, or 25.0 μM/well, followed by reaction for 24 hours in a 5% CO2 incubator. After the culture, a reaction solution containing 5 mg/ml MTT (Thiazolyl Blue Tetrazolium Bromide) dissolved in physiological saline (PBS) was added in an amount of 20 μl to each well and allowed to react for 4 hours. After that, the supernatant was removed, and, by dissolving MTT crystals that are formed by adding 200 μl of DMSO, the absorbance at 560 nm was measured to determine the cell survival ability.

[7] = NaCl (BSA+150 mM sodium chloride)

## CC[C@H](C)[C@H](NC(=O)[C@H](Cc1c[nH]c2ccccc12)NC(=O)[C@H](CCCCN)NC(=O)[C@@H](NC(=O)[C@@H](N)CCCCN)[C@@H](C)CC)C(=O)N[C@@H](CC(C)C)C(=O)N[C@@H](CCCCN)C(=O)N[C@@H](Cc1ccc(O)cc1)C(=O)N[C@@H](Cc1c[nH]c2ccccc12)C(=O)N[C@@H](CCCCN)C(=O)N[C@@H](Cc1c[nH]c2ccccc12)C(=O)N[C@@H](CO)C(N)=O [Myxinidin 2, KIKWILKYWKWS-NH2] (H-KIKWILKYWKWS-NH2; N-terminus assumed)
S. typhimurium 8009; [7]
  Antimicrobial activity (MIC) according to salt concentration: 8
S. typhimurium 8009; PBS
  Antimicrobial activity (MIC) according to salt concentration: 4
S. typhimurium 8009; SP (10 mM sodium phosphate)
  Antimicrobial activity (MIC) according to salt concentration: 4
S. typhimurium 8013; [7]
  Antimicrobial activity (MIC) according to salt concentration: 32
S. typhimurium 8013; PBS
  Antimicrobial activity (MIC) according to salt concentration: 8
S. typhimurium 8013; SP (10 mM sodium phosphate)
  Antimicrobial activity (MIC) according to salt concentration: 4
S. typhimurium; [7]
  Antimicrobial activity (MIC) according to salt concentration: 2
S. typhimurium; PBS
  Antimicrobial activity (MIC) according to salt concentration: 4
S. typhimurium; SP (10 mM sodium phosphate)
  Antimicrobial activity (MIC) according to salt concentration: 2
S. aureus 3114; [7]
  Antimicrobial activity (MIC) according to salt concentration: >32
S. aureus 3114; PBS
  Antimicrobial activity (MIC) according to salt concentration: 16
S. aureus 3114; SP (10 mM sodium phosphate)
  Antimicrobial activity (MIC) according to salt concentration: 8
S. aureus 3709; [7]
  Antimicrobial activity (MIC) according to salt concentration: 8
S. aureus 3709; PBS
  Antimicrobial activity (MIC) according to salt concentration: 8
S. aureus 3709; SP (10 mM sodium phosphate)
  Antimicrobial activity (MIC) according to salt concentration: 4
S. aureus [1]; [7]
  Antimicrobial activity (MIC) according to salt concentration: 0.25
S. aureus [1]; PBS
  Antimicrobial activity (MIC) according to salt concentration: 1
S. aureus [1]; SP (10 mM sodium phosphate)
  Antimicrobial activity (MIC) according to salt concentration: 1
L. monocytogenes [2]; [7]
  Antimicrobial activity (MIC) according to salt concentration: 4
L. monocytogenes [2]; PBS
  Antimicrobial activity (MIC) according to salt concentration: 8
L. monocytogenes [2]; SP (10 mM sodium phosphate)
  Antimicrobial activity (MIC) according to salt concentration: 8
P. aeruginosa 3592; [7]
  Antimicrobial activity (MIC) according to salt concentration: 16
P. aeruginosa 3592; PBS
  Antimicrobial activity (MIC) according to salt concentration: 8
P. aeruginosa 3592; SP (10 mM sodium phosphate)
  Antimicrobial activity (MIC) according to salt concentration: 8
P. aeruginosa 5018; [7]
  Antimicrobial activity (MIC) according to salt concentration: 16
P. aeruginosa 5018; PBS
  Antimicrobial activity (MIC) according to salt concentration: 4
P. aeruginosa 5018; SP (10 mM sodium phosphate)
  Antimicrobial activity (MIC) according to salt concentration: 2
P. aeruginosa [3]; [7]
  Antimicrobial activity (MIC) according to salt concentration: 8
P. aeruginosa [3]; PBS
  Antimicrobial activity (MIC) according to salt concentration: 4
P. aeruginosa [3]; SP (10 mM sodium phosphate)
  Antimicrobial activity (MIC) according to salt concentration: 8
P. aeruginosa [4]; peptide 0.25 μM
  Biofilm forming ability: 100%
P. aeruginosa [4]; peptide 0.5 μM
  Biofilm forming ability: 98%
P. aeruginosa [4]; peptide 1 μM
  Biofilm forming ability: 95%
P. aeruginosa [4]; peptide 2 μM
  Biofilm forming ability: 83%
P. aeruginosa [4]; peptide 4 μM
  Biofilm forming ability: 29%
P. aeruginosa [4]; peptide 8 μM
  Biofilm forming ability: 13%
P. aeruginosa [4]; peptide 16 μM
  Biofilm forming ability: 5%
P. aeruginosa [4]; peptide 32 μM
  Biofilm forming ability: 5%
S. aureus [5]; peptide 0.25 μM
  Biofilm forming ability: 100%
S. aureus [5]; peptide 0.5 μM
  Biofilm forming ability: 97%
S. aureus [5]; peptide 1 μM
  Biofilm forming ability: 97%
S. aureus [5]; peptide 2 μM
  Biofilm forming ability: 97%
S. aureus [5]; peptide 4 μM
  Biofilm forming ability: 93%
S. aureus [5]; peptide 8 μM
  Biofilm forming ability: 89%
S. aureus [5]; peptide 16 μM
  Biofilm forming ability: 24%
S. aureus [5]; peptide 32 μM
  Biofilm forming ability: 15%
L. monocytogenes [6]; peptide 0.25 μM
  Biofilm forming ability: 100%
L. monocytogenes [6]; peptide 0.5 μM
  Biofilm forming ability: 100%
L. monocytogenes [6]; peptide 1 μM
  Biofilm forming ability: 100%
L. monocytogenes [6]; peptide 2 μM
  Biofilm forming ability: 100%
L. monocytogenes [6]; peptide 4 μM
  Biofilm forming ability: 99%
L. monocytogenes [6]; peptide 8 μM
  Biofilm forming ability: 93%
L. monocytogenes [6]; peptide 16 μM
  Biofilm forming ability: 45%
L. monocytogenes [6]; peptide 32 μM
  Biofilm forming ability: 33%
In vitro
  viability at 24 h, 3.125 µM: 100%
  viability at 24 h, 6.25 µM: 100%
  viability at 24 h, 12.5 µM: 98%
  viability at 24 h, 25 µM: 75%
